{"source": "patent US20250092015A1", "about": "“A 6-substituted Chiral Pure Difluoropiperidine Quinazoline Derivative And Its Preparation Method” (WEISHANG (SHANGHAI) BIO-PHARMACEUTICAL CO., LTD., priority 2022, published 2025)", "key": {"[1]": {"test_system": "PC-9 tumor cell (EGFR Del 19 mutation)", "experiment": "CellTiter-Glo (CTG) cell viability, PC-9 cells", "assay_type": "cell-based", "details": "Homo sapiens, 72 h of drug addition, read-out: Growth inhibition IC50, PC-9 tumor cell (EGFR Del 19 mutation)", "experimental": "(§1) Cell viability of tumor cells and gliomas with EGFR-activated mutant (Exon 19 Del, PC-9 cell; Exon 21 L858R, H3255 cell) protein was detected using CellTiter-Glo (CTG) assay; approximately 5000 cells were placed in each blank of the 96-well plate. The diluted compound was added proportionally after 16 h and equilibrated at room temperature for 30 min after 72 h of drug addition. 100 µL of CellTiter-Glo reagent was added to each well and mixed well on an orbital shaker for 2 min to induce cell lysis. The plate was incubated at room temperature for 10 min to stabilize the luminous signal. The luminous signal was recorded on a TECAN Infinite M1000 Pro instrument."}, "[2]": {"test_system": "H3255 tumor cell (EGFR L858R mutation)", "experiment": "CellTiter-Glo (CTG) cell viability, H3255 cells", "assay_type": "cell-based", "details": "Homo sapiens, NCI-H3255, 72 h of drug addition, read-out: Growth inhibition IC50, H3255 tumor cell (EGFR L858R mutation)", "experimental": "as §1"}, "[3]": {"test_system": "Human glioma tumor cell with EGFRVIII mutation", "experiment": "CellTiter-Glo (CTG) cell viability, glioma cells", "assay_type": "cell-based", "details": "72 h of drug addition, read-out: Growth inhibition IC50, human glioma tumor cell with EGFRVIII mutation", "experimental": "as §1"}, "[4]": {"test_system": "PC-9luc tumor cells (non-small cell lung cancer with Exon 19 Del)", "experiment": "Survival in mouse model of intracranial meningeal metastasis", "assay_type": "in vivo", "details": "PO, BID, PC-9luc seeded into brain of mice, FIG. 3", "experimental": "PC-9luc tumor cells (non-small cell lung cancer with Exon 19 Del, about 2×10^5 cells) were seeded into the brain of mice, and administration was started approximately 11 days after tumor growth. Group 1 was the control group (8 mice), without any medication. Group 2 received Iressa (8 mice), 15 mg/kg, PO. Group 3 received (R)-6-((3,3-difluoro-1-methylpiperidin-4-yl)oxy)-N-(3-ethynyl-2-fluorophenyl)-7-methoxyquinazoline-4-amine monotherapy group (8 mice), 10 mg/kg, PO, BID. Group 4 received (R)-6-((3,3-difluoro-1-methylpiperidin-4-yl)oxy)-N-(3-ethynyl-2-fluorophenyl)-7-methoxyquinazoline-4-amine monotherapy group (8 mice), 3 mg/kg, PO, BID."}, "[5]": {"test_system": "patient's primary tumor tissue GBM (EGFRV3 mutated brain tumor)", "experiment": "Survival in mouse intracranial PDX model", "assay_type": "in vivo, mice", "details": "30 mg/kg, PO, BID, treatment more than 50 d, FIG. 2", "experimental": "The patient's primary tumor tissue GBM (brain tumor, about 50,000 cells) was seeded into the brain of mice. Administration began after the tumor grew for about 10 d and treatment lasted for more than 50 d. In the pharmacodynamic study of tumor transplanted animal model with EGFRV3 mutated brain tumor from patient's primary tumor tissue in mice, Group 1 was the control group (8 mice) without any medication. Group 2 received (R)-6-((3,3-difluoro-1-methylpiperidin-4-yl)oxy)-N-(3-ethynyl-2-fluorophenyl)-7-methoxyquinazoline-4-amine monotherapy group (8 mice), 30 mg/kg, PO, BID."}, "[6]": {"experiment": "Rate of crossing blood-brain barrier in rats", "assay_type": "in vivo", "details": "4 h after administration", "experimental": "To determine whether (R)-6-((3,3-difluoro-1-methylpiperidin-4-yl)oxy)-N-(3-ethynyl-2-fluorophenyl)-7-methoxyquinazoline-4-amine prepared by the present disclosure is able to cross the blood-brain barrier (BBB), the test compound was administered to rats. After 4 h of administration, the rats were killed and blood and brain tissues were collected to test the compound concentration. Brain osmosis is defined as the ratio of the concentration of compounds in brain tissue to the concentration in plasma. The rate of crossing blood-brain barrier is the ratio of free drug concentration in brain tissue to free drug concentration in plasma. P-glycoprotein is an efflux protein at the blood-brain barrier that excretes P-glycoprotein substrate from the brain. Breast cancer resistance protein is an efflux protein at the blood-brain barrier that excretes […]."}, "P-glycoprotein": {"target": "P-glycoprotein (Homo sapiens, UniProt P08183)", "sequence (P08183 whole entry)": "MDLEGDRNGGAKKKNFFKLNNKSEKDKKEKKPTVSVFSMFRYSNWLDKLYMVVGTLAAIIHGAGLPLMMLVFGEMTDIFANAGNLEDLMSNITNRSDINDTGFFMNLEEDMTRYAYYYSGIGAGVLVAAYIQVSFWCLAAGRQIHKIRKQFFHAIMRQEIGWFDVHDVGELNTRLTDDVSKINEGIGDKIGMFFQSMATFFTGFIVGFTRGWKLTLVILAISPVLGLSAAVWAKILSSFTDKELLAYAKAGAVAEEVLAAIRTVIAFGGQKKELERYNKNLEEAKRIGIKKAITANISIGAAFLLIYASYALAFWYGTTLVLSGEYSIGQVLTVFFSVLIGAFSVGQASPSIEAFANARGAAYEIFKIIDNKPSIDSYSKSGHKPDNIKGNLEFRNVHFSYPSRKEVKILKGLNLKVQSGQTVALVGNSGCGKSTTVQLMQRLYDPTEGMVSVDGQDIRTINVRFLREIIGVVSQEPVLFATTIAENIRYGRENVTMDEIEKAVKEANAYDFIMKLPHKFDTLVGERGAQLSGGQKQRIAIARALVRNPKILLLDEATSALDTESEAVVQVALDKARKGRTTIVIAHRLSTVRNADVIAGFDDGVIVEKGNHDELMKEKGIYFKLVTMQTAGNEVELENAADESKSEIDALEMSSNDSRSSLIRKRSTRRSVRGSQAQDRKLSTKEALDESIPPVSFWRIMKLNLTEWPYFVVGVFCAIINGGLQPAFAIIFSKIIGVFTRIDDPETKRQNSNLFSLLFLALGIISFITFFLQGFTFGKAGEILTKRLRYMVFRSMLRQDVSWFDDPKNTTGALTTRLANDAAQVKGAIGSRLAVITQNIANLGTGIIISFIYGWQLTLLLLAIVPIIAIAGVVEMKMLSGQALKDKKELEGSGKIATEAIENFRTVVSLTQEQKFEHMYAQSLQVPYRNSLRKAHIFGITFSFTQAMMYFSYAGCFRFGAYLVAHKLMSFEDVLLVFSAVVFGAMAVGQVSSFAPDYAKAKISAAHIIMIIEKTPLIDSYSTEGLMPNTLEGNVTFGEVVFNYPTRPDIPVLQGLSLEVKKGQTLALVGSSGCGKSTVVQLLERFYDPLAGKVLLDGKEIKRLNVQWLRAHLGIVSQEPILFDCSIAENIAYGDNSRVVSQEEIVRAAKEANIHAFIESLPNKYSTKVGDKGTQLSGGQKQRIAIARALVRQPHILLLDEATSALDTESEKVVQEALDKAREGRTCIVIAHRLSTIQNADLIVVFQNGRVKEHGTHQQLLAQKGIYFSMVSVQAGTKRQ", "experiment": "P-glycoprotein efflux substrate test", "assay_type": "in vitro ADME"}, "[7]": {"target": "T1, Breast cancer resistance protein (Homo sapiens, UniProt Q9UNQ0)", "T1 sequence (Q9UNQ0 1-655)": "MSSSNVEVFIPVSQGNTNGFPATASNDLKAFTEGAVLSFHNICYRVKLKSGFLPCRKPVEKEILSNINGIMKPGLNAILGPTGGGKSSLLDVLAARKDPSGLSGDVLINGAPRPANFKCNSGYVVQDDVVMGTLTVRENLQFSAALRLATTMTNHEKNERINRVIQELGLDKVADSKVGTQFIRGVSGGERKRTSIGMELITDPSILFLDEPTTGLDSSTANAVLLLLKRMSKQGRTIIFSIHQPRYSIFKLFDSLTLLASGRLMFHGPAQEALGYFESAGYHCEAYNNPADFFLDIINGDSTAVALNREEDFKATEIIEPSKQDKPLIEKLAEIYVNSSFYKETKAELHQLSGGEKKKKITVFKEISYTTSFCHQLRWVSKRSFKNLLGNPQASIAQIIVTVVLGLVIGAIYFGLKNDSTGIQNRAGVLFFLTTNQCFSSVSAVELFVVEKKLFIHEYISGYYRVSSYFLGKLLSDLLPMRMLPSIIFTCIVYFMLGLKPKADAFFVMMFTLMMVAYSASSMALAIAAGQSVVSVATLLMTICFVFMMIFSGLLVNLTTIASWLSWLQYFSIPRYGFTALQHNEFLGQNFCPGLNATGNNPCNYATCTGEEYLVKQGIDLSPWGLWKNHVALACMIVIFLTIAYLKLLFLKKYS", "experiment": "Breast cancer resistance protein efflux substrate test", "assay_type": "in vitro ADME"}, "[8]": {"experiment": "Pharmacokinetic study of rats (bioavailability)", "assay_type": "in vivo", "details": "rat, blood, 1-2 mg/kg iv vs 2-40 mg/kg PO", "experimental": "In the pharmacokinetic study of rats, Group 1 (3 rats) was administrated with 1-2 mg/kg, iv, and Group 2 (3 rats) was administrated with 2-40 mg/kg, PO. Blood was sampled at 7 time points (0.25, 0.5, 1, 2, 4, 8 and 16 hours points) to measure the concentration of the quinazoline derivatives (I) prepared by the present disclosure in blood and calculate the peak area and half-life. Bioavailability is calculated as (peak area of oral drug/oral dose)/(peak area of intravenous drug/intravenous dose)×100%."}, "EGFR enzyme": {"target": "EGFR enzyme (Homo sapiens, UniProt P00533)", "sequence (P00533 25-1210)": "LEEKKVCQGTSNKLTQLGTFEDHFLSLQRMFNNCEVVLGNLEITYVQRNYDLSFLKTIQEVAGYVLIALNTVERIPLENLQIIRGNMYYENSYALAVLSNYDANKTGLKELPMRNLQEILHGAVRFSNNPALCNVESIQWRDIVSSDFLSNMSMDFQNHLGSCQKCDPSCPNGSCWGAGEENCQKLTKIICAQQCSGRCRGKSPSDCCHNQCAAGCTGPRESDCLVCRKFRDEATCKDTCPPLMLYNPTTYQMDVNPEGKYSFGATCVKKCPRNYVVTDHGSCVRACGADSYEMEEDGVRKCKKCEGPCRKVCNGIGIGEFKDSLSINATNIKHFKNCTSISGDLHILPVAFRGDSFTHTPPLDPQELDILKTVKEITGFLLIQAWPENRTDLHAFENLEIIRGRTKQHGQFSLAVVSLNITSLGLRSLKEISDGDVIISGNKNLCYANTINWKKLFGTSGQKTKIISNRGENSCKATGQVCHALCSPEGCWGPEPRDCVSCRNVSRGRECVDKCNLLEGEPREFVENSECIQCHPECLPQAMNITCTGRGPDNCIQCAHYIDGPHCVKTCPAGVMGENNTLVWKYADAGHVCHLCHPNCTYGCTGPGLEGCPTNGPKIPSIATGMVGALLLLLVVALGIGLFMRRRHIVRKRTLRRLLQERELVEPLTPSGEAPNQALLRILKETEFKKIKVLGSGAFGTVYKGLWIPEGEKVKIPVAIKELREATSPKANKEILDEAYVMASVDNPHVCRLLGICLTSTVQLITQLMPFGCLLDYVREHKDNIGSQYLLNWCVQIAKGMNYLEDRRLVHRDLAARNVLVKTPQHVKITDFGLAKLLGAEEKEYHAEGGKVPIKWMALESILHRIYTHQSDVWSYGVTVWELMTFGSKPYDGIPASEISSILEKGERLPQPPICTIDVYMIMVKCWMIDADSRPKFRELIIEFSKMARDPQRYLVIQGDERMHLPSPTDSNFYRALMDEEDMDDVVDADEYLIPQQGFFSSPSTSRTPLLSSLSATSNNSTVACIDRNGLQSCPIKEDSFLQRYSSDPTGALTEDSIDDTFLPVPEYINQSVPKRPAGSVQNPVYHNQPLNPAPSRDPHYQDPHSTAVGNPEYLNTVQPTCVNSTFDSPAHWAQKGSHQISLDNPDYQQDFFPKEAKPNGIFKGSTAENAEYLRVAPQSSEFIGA", "experiment": "EGFR enzyme ADP-Glo mechanism of action study (ATP titration)", "assay_type": "biochemical", "details": "PolyE4Y1 substrate, ATP diluted from 600 uM, FIG. 4", "experimental": "In the study of the mechanism of action of (R)-6-((3,3-difluoro-1-methylpiperidin-4-yl)oxy)-N-(3-ethynyl-2-fluorophenyl)-7-methoxyquinazoline-4-amine prepared by the present disclosure to inhibit EGFR, EGFR enzyme was added to a solution of PolyE4Y1 on a 384-well plate from 6 concentrations diluted at an equal ratio of 0.4 nM (2-fold) to 0.0125 nM and 0 concentration, and incubated for 15 min. ATP was added at 7 concentrations diluted at an equal ratio of 600 uM (2-fold) for reaction for 60 min, and then ADP-Glo reagent and detection reagent were added for 40 min to measure RLU signal. […] The benefits of this mechanism of action are obvious, with minimal side effects and anti-drug resistance."}, "[9]": {"details": "listed as -1-3,3-difluoro-1-methylpiperidin-4-yl)oxy)-N-(3-ethynyl-2-fluorophenyl)-7-metho"}}, "note": "Where two headings read alike, the source gives them in different places."}
{"smiles": "C#Cc1cccc(Nc2ncnc3cc(OC)c(O[C@@H]4CCN(C)CC4(F)F)cc23)c1F", "note": "[(R)-6-((3,3-difluoro-1-methylpiperidin-4-yl)oxy)-N-(3-ethynyl-2-fluorophenyl)-7-methoxyquinazoline-4-amine]", "values": [{"measurement": "IC50", "setting": "[1]", "value": 8, "unit": "nM"}, {"measurement": "IC50", "setting": "[2]", "value": 2, "unit": "nM"}, {"measurement": "IC50", "setting": "[3]", "value": 10, "unit": "nM"}, {"measurement": "Survival", "setting": "[4]; Group 3, 10 mg/kg", "value": "significantly improved"}, {"measurement": "Survival", "setting": "[4]; Group 4, 3 mg/kg", "value": "significantly improved"}, {"measurement": "Survival compared to control group", "setting": "[5]", "value": "significantly prolonged"}, {"measurement": "Rate of crossing blood-brain barrier (ratio of free drug concentration in brain tissue to free drug concentration in plasma)", "setting": "[6]", "value": ">50", "unit": "%"}, {"measurement": "Kp at 4 h", "setting": "[6]; rat, brain tissue and plasma (free drug concentrations), read-out: Rate of crossing blood-brain barrier (ratio of free drug concentration in brain tissue to free drug concentration in plasma)", "value": "> 0.5"}, {"measurement": "P-glycoprotein efflux substrate", "setting": "P-glycoprotein", "value": "No"}, {"measurement": "P-glycoprotein efflux substrate", "setting": "P-glycoprotein; [9]", "value": "not P-glycoprotein substrate"}, {"measurement": "Breast cancer resistance protein efflux substrate", "setting": "[7]", "value": "No"}, {"measurement": "Breast cancer resistance protein efflux substrate", "setting": "[7]; [9]", "value": "not P-glycoprotein substrate or breast cancer resistance protein efflux substrate"}, {"measurement": "bioavailability", "setting": "[8]", "value": "> 35", "unit": "%"}, {"measurement": "Mechanism of action of EGFR inhibition", "setting": "EGFR enzyme", "value": "non-ATP competitive"}]}
